Reference: patent US9074014B2 (Ipsen Pharma S.A.S., priority 2008, dated 2015)
Where a SMILES comes first, the peptide text is derived from it. [ ]: non-standard residue; d: D form. Ac6c = NC1(C(=O)O)CCCCC1; Nle = CCCC[C@H](N)C(=O)O; Ac5c = NC1(C(=O)O)CCCC1; Aib = CC(C)(N)C(=O)O

What was measured:
[1] = Human plasma half-life assay; type: in vitro ADME; conditions: human plasma, 37° C., LC-MS; read-out: Human Plasma T½ (converted)
Protocol: (§1) B. Human and Rat Plasma Half-Life Assay
(§2) 50 μL was removed at various times, like at 0, 1, 2, 3, 4, 8, 24, 32, 48, 56, 72 hours, mixed with 5 μL formic acid and 150 μL acetonitrile in a microcentrifuge tube, vertexed, and centrifuged for 10 minutes at 10K rpm. The supernatant was transferred to an injection vial and analyzed by LC-MS. The LC-MS system consisted of an API4000 mass spectrometer with an ESI probe. Positive ion mode and full scan detection were used. HPLC separation was carried out on a Luna 3μ C8 (2), 2×30 mm column with a gradient from 90% A to 90% B in 10 minutes at a flow rate of 0.3 ml/min. Buffer A was 1% formic acid in water and buffer B was 1% formic acid acetonitrile.

[2] = Rat plasma half-life assay; type: in vitro ADME; conditions: rat plasma, 37° C., LC-MS; read-out: Rat Plasma T½ (converted)
Protocol: as §1, §2

| SMILES | half-life at 0.1 mg/ml [1] [h] | half-life at 0.1 mg/ml [2] [h] |
| --- | --- | --- |
| CC[C@H](C)[C@H](NC(=O)[C@H](CCCCN)NC(=O)[C@H](CC(=O)O)NC(=O)[C@H](CCSC)NC(=O)[C@H](C)NC(=O)C(C)(C)NC(=O)[C@H](CO)NC(=O)[C@H](Cc1ccc(O)cc1)NC(=O)[C@H](CC(=O)O)NC(=O)[C@H](CO)NC(=O)[C@@H](NC(=O)[C@H](Cc1ccccc1)NC(=O)[C@@H](NC(=O)CNC(=O)[C@H](CCC(=O)O)NC(=O)C(C)(C)NC(=O)[C@@H](N)Cc1ccc(O)cc1)[C@@H](C)O)[C@@H](C)CC)C(=O)N[C@@H](Cc1c[nH]cn1)C(=O)N[C@@H](CCC(N)=O)C(=O)N[C@@H](CCC(N)=O)C(=O)N[C@@H](CC(=O)O)C(=O)N[C@@H](Cc1ccccc1)C(=O)N[C@H](C(=O)N[C@@H](CC(N)=O)C(=O)N[C@@H](Cc1c[nH]c2ccccc12)C(=O)N[C@@H](CC(C)C)C(=O)N[C@@H](CC(C)C)C(=O)N[C@@H](C)C(=O)N[C@@H](CCC(N)=O)C(=O)N[C@@H](CCCCN)C(N)=O)C(C)C [Example 20, (Aib^2, 12)hGIP(1-30)-NH2] (H-Y[Aib]EGTFISDYS[Aib]AMDKIHQQDFVNWLLAQK-NH2; N-terminus assumed) | 25.4 | 42 |
| CCCC[C@H](NC(=O)[C@H](C)NC(=O)[C@@H](NC(=O)[C@H](CO)NC(=O)[C@H](Cc1ccc(O)cc1)NC(=O)[C@H](CC(=O)O)NC(=O)[C@H](CO)NC(=O)C1(NC(=O)[C@H](Cc2ccccc2)NC(=O)[C@@H](NC(=O)CNC(=O)[C@H](CCC(=O)O)NC(=O)C(C)(C)NC(=O)[C@@H](N)Cc2ccc(O)cc2)[C@@H](C)O)CCCCC1)[C@@H](C)CC)C(=O)N[C@@H](CC(=O)O)C(=O)N[C@@H](CCCCN)C(=O)N[C@H](C(=O)N[C@@H](Cc1c[nH]cn1)C(=O)N[C@@H](CCC(N)=O)C(=O)N[C@@H](CCC(N)=O)C(=O)N[C@@H](CC(=O)O)C(=O)N[C@@H](Cc1ccccc1)C(=O)N[C@H](C(=O)N[C@@H](CC(N)=O)C(=O)N[C@@H](Cc1c[nH]c2ccccc12)C(=O)N[C@@H](CC(C)C)C(=O)N[C@@H](CC(C)C)C(=O)N[C@@H](C)C(=O)N[C@@H](CCC(N)=O)C(=O)N[C@@H](CCCCN)C(N)=O)C(C)C)[C@@H](C)CC [Example 31, (Aib^2, A6c^7, Nle^14)hGIP(1-30)-NH2] (H-Y[Aib]EGTF[Ac6c]SDYSIA[Nle]DKIHQQDFVNWLLAQK-NH2; N-terminus assumed) | 36.5 | 31.4 |
| CCCC[C@H](NC(=O)[C@H](C)NC(=O)[C@@H](NC(=O)[C@H](CO)NC(=O)[C@H](Cc1ccc(O)cc1)NC(=O)[C@H](CC(=O)O)NC(=O)[C@H](CO)NC(=O)C1(NC(=O)[C@H](Cc2ccccc2)NC(=O)[C@@H](NC(=O)CNC(=O)[C@H](CCC(=O)O)NC(=O)C(C)(C)NC(=O)[C@@H](N)Cc2ccc(O)cc2)[C@@H](C)O)CCCC1)[C@@H](C)CC)C(=O)N[C@@H](CC(=O)O)C(=O)N[C@@H](CCCCN)C(=O)N[C@H](C(=O)N[C@@H](Cc1c[nH]cn1)C(=O)N[C@@H](CCC(N)=O)C(=O)N[C@@H](CCC(N)=O)C(=O)N[C@@H](CC(=O)O)C(=O)N[C@@H](Cc1ccccc1)C(=O)N[C@H](C(=O)N[C@@H](CC(N)=O)C(=O)N[C@@H](Cc1c[nH]c2ccccc12)C(=O)N[C@@H](CC(C)C)C(=O)N[C@@H](CC(C)C)C(=O)N[C@@H](C)C(=O)N[C@@H](CCC(N)=O)C(=O)N[C@@H](CCCCN)C(N)=O)C(C)C)[C@@H](C)CC [Example 32, (Aib^2, A5c^7, Nle^14)hGIP(1-30)-NH2] (H-Y[Aib]EGTF[Ac5c]SDYSIA[Nle]DKIHQQDFVNWLLAQK-NH2; N-terminus assumed) | > 48 | 28.3 |
| CCCC[C@H](NC(=O)[C@H](C)NC(=O)[C@@H](NC(=O)C(C)(C)NC(=O)[C@H](Cc1ccc(O)cc1)NC(=O)[C@H](CC(=O)O)NC(=O)[C@H](CO)NC(=O)[C@@H](NC(=O)[C@H](Cc1ccccc1)NC(=O)[C@@H](NC(=O)CNC(=O)[C@H](CCC(=O)O)NC(=O)C(C)(C)NC(=O)[C@@H](N)Cc1ccc(O)cc1)[C@@H](C)O)[C@@H](C)CC)[C@@H](C)CC)C(=O)N[C@@H](CC(=O)O)C(=O)N[C@@H](CCCCN)C(=O)N[C@H](C(=O)N[C@@H](Cc1c[nH]cn1)C(=O)N[C@@H](CCC(N)=O)C(=O)N[C@@H](CCC(N)=O)C(=O)N[C@@H](CC(=O)O)C(=O)N[C@@H](Cc1ccccc1)C(=O)N[C@H](C(=O)N[C@@H](CC(N)=O)C(=O)N[C@@H](Cc1c[nH]c2ccccc12)C(=O)N[C@@H](CC(C)C)C(=O)N[C@@H](CC(C)C)C(=O)N[C@@H](C)C(=O)N[C@@H](CCC(N)=O)C(=O)N[C@@H](CCCCN)C(N)=O)C(C)C)[C@@H](C)CC [Example 33, (Aib^2, 11, Nle^14)hGIP(1-30)-NH2] (H-Y[Aib]EGTFISDY[Aib]IA[Nle]DKIHQQDFVNWLLAQK-NH2; N-terminus assumed) | > 48 | 34 |
| CCCC[C@H](NC(=O)[C@H](C)NC(=O)[C@@H](NC(=O)[C@H](CO)NC(=O)[C@H](Cc1ccc(O)cc1)NC(=O)[C@H](CC(=O)O)NC(=O)[C@H](CO)NC(=O)C1(NC(=O)[C@H](Cc2ccccc2)NC(=O)[C@@H](NC(=O)CNC(=O)[C@H](CCC(=O)O)NC(=O)C2(NC(=O)[C@@H](N)Cc3ccc(O)cc3)CCCC2)[C@@H](C)O)CCCC1)[C@@H](C)CC)C(=O)N[C@@H](CC(=O)O)C(=O)N[C@@H](CCCCN)C(=O)N[C@H](C(=O)N[C@@H](Cc1c[nH]cn1)C(=O)N[C@@H](CCC(N)=O)C(=O)N[C@@H](CCC(N)=O)C(=O)N[C@@H](CC(=O)O)C(=O)N[C@@H](Cc1ccccc1)C(=O)N[C@H](C(=O)N[C@@H](CC(N)=O)C(=O)N[C@@H](Cc1c[nH]c2ccccc12)C(=O)N[C@@H](CC(C)C)C(=O)N[C@@H](CC(C)C)C(=O)N[C@@H](C)C(=O)N[C@@H](CCC(N)=O)C(=O)N[C@@H](CCCCN)C(N)=O)C(C)C)[C@@H](C)CC [Example 34, (A5c^2,7, Nle^14)hGIP(1-30)-NH2] (H-Y[Ac5c]EGTF[Ac5c]SDYSIA[Nle]DKIHQQDFVNWLLAQK-NH2; N-terminus assumed) | > 48 | 23 |
| CC[C@H](C)[C@H](NC(=O)[C@H](CO)NC(=O)[C@H](Cc1ccc(O)cc1)NC(=O)[C@H](CC(=O)O)NC(=O)[C@H](CO)NC(=O)C1(NC(=O)[C@H](Cc2ccccc2)NC(=O)[C@@H](NC(=O)CNC(=O)[C@H](CCC(=O)O)NC(=O)C(C)(C)NC(=O)[C@@H](N)Cc2ccc(O)cc2)[C@@H](C)O)CCCC1)C(=O)N[C@@H](C)C(=O)NC1(C(=O)N[C@@H](CC(=O)O)C(=O)N[C@@H](CCCCN)C(=O)N[C@H](C(=O)N[C@@H](Cc2c[nH]cn2)C(=O)N[C@@H](CCC(N)=O)C(=O)N[C@@H](CCC(N)=O)C(=O)N[C@@H](CC(=O)O)C(=O)N[C@@H](Cc2ccccc2)C(=O)N[C@H](C(=O)N[C@@H](CC(N)=O)C(=O)N[C@@H](Cc2c[nH]c3ccccc23)C(=O)N[C@@H](CC(C)C)C(=O)N[C@@H](CC(C)C)C(=O)N[C@@H](C)C(=O)N[C@@H](CCC(N)=O)C(=O)N[C@@H](CCCCN)C(N)=O)C(C)C)[C@@H](C)CC)CCCC1 [Example 35, (Aib^2, A5c^7, 14)hGIP(1-30)-NH2] (H-Y[Aib]EGTF[Ac5c]SDYSIA[Ac5c]DKIHQQDFVNWLLAQK-NH2; N-terminus assumed) | > 48 | 39.4 |
| CCCC[C@H](NC(=O)[C@H](C)NC(=O)[C@@H](NC(=O)[C@H](CO)NC(=O)[C@H](Cc1ccc(O)cc1)NC(=O)[C@H](CC(=O)O)NC(=O)[C@H](CO)NC(=O)C1(NC(=O)[C@H](Cc2ccccc2)NC(=O)[C@@H](NC(=O)CNC(=O)[C@H](CCC(=O)O)NC(=O)C2(NC(=O)[C@@H](N)Cc3ccc(O)cc3)CCCCC2)[C@@H](C)O)CCCCC1)[C@@H](C)CC)C(=O)N[C@@H](CC(=O)O)C(=O)N[C@@H](CCCCN)C(=O)N[C@H](C(=O)N[C@@H](Cc1c[nH]cn1)C(=O)N[C@@H](CCC(N)=O)C(=O)N[C@@H](CCC(N)=O)C(=O)N[C@@H](CC(=O)O)C(=O)N[C@@H](Cc1ccccc1)C(=O)N[C@H](C(=O)N[C@@H](CC(N)=O)C(=O)N[C@@H](Cc1c[nH]c2ccccc12)C(=O)N[C@@H](CC(C)C)C(=O)N[C@@H](CC(C)C)C(=O)N[C@@H](C)C(=O)N[C@@H](CCC(N)=O)C(=O)N[C@@H](CCCCN)C(N)=O)C(C)C)[C@@H](C)CC [Example 36, (A6c^2,7, Nle^14)hGIP(1-30)-NH2] (H-Y[Ac6c]EGTF[Ac6c]SDYSIA[Nle]DKIHQQDFVNWLLAQK-NH2; N-terminus assumed) | 23.7 | 29.2 |
| CC[C@H](C)[C@H](NC(=O)[C@H](CO)NC(=O)[C@H](Cc1ccc(O)cc1)NC(=O)[C@H](CC(=O)O)NC(=O)[C@H](CO)NC(=O)C1(NC(=O)[C@H](Cc2ccccc2)NC(=O)[C@@H](NC(=O)CNC(=O)[C@H](CCC(=O)O)NC(=O)C(C)(C)NC(=O)[C@@H](N)Cc2ccc(O)cc2)[C@@H](C)O)CCCCC1)C(=O)N[C@@H](C)C(=O)NC1(C(=O)N[C@@H](CC(=O)O)C(=O)N[C@@H](CCCCN)C(=O)N[C@H](C(=O)N[C@@H](Cc2c[nH]cn2)C(=O)N[C@@H](CCC(N)=O)C(=O)N[C@@H](CCC(N)=O)C(=O)N[C@@H](CC(=O)O)C(=O)N[C@@H](Cc2ccccc2)C(=O)N[C@H](C(=O)N[C@@H](CC(N)=O)C(=O)N[C@@H](Cc2c[nH]c3ccccc23)C(=O)N[C@@H](CC(C)C)C(=O)N[C@@H](CC(C)C)C(=O)N[C@@H](C)C(=O)N[C@@H](CCC(N)=O)C(=O)N[C@@H](CCCCN)C(N)=O)C(C)C)[C@@H](C)CC)CCCCC1 [Example 39, (Aib^2, A6c^7, 14)hGIP(1-30)-NH2] (H-Y[Aib]EGTF[Ac6c]SDYSIA[Ac6c]DKIHQQDFVNWLLAQK-NH2; N-terminus assumed) | 42.3 | 43.3 |
